Drawing on paper PMC13083723 (Patterns, 2026), this text covers activation, result_ITMP and PLD propensity for 77 compounds.

The assay deals with Vero-E6 cells. In words: cells. The format is cell-based. The settings on record: for activation at 10 µM: Chlorocebus sabaeus, Vero C1008, 24 h, read-out: PL_Result.

With `OC(c1ccccc1)C1CCN(CCc2ccccc2)CC1` (centres unmarked) [SPE_A62057054], the activation at 10 µM is 3.01%.
Turning to `CNC(=O)[C@H]1O[C@@H](n2cnc3c(NCc4cccc(I)c4)nc(Cl)nc32)[C@H](O)[C@@H]1O` [SPE_K52396582], the activation at 10 µM is -2.9%.
Consider `NC1(Cc2ccc(Cl)cc2)CCN(c2ncnc3[nH]ccc23)CC1` [SPE_K76406695], for which the activation at 10 µM was -4.38%.
Consider `CCCCCCCCCCCCOS(=O)(=O)O` [SPE_K05680146], for which the activation at 10 µM worked out at 12.1%.
Consider `CC(C)(O)CC(=O)NCCn1ccc2ncnc(Nc3ccc(Oc4cccc(C(F)(F)F)c4)c(Cl)c3)c21` [SPE_K80343549], for which the activation at 10 µM was -7.02%.
For `O=C1CCCN1CC#CCN1CCCC1` [SPE_K21936341], the activation at 10 µM is -3.09%.
For `Clc1ccc(C(Cn2ccnc2)OCc2c(Cl)cccc2Cl)c(Cl)c1` (centres unmarked) [SPE_A93353767], the activation at 10 µM amounted to 0.354%.
Take `Cc1cccc(-c2n[nH]cc2-c2ccc3ncccc3n2)n1` [SPE_K80480517]: the activation at 10 µM was determined as 0.32%.
Take `Cc1cc(C)c2nc(-c3ccccn3)cc(C(=O)Nc3ccc(S(=O)(=O)Nc4onc(C)c4C)cc3)c2c1` [SPE_K27539181]: the activation at 10 µM is 7.09%.
On the same count and under the same terms, as for `Clc1ccc(C23CNCC2C3)cc1Cl` (centres unmarked) [SPE_A68942014], the figure is -4.9%; as for `Nc1c[n+](N2CCOCC2)no1` [SPE_K72922393], -10.9%; as for `Oc1nc(-c2ccc(C(F)(F)F)cc2)nc2c1CSCC2` [SPE_K12762134], -6.13%.
For the compound `CCCCCCCCCCCCCCCc1cccc(OCC(=O)NCCO)c1` [SPE_K26358347], the activation at 10 µM was -8.8%.
The same measure, in the same setting: as for `CNC[C@H](O)c1cccc(O)c1` [SPE_K73381542], the figure is 3.82%; as for `O=C(NCC(=O)N1CCCC1)Nc1ccc2cnccc2c1` [SPE_K86718786], -0.0855%; as for `Cn1cccc1/C=C1\C(=O)NC(=O)c2ccccc21` [SPE_K61665160], -5.42%.
In the case of `O=C(NCCN1CCC2(CC1)C(=O)NCN2c1cccc(F)c1)c1ccc2ccccc2c1` [SPE_K93317811], the activation at 10 µM came to 113%.
With `CC(C)CCN1c2nc(Nc3cc(F)c(O)c(F)c3)ncc2N(C)C(=O)C1C` (centres unmarked) [SPE_A81370665], the activation at 10 µM is -5.78%.
On the same count and under the same terms, with `N#Cc1cnc2cnc(NCc3cccnc3)cc2c1Nc1ccc(F)c(Cl)c1` [SPE_K51776215] the figure was 4.19%.
In the case of `CCNC(=O)C[C@@H]1N=C(c2ccc(Cl)cc2)c2cc(OC)ccc2-n2c(C)nnc21` [I-BET-762, reference compound], the result_ITMP was found to be 13.27 percent effect.
In the case of `CCN1C[C@H](C)n2c(c(O)c3c(=O)n(Cc4ccc(F)c(Cl)c4)nc(C(=O)NC)c32)C1=O` [SPE_K03128512], the activation at 10 µM is 7.85%.
Consider `Nc1nc(NCCc2ccc(O)cc2)nc2nc(-c3ccco3)nn12` [SPE_K19605405], for which the activation at 10 µM was -2.19%.
Same read-out and setting: as for `c1ccc(Cn2c(-c3ccc(OC[C@H](C4CCNCC4)n4c(-c5ccccc5)nc5ccccc54)cc3)nc3ccccc32)cc1` [SPE_K90830492], the figure is 1.3%.
Consider `CC(=O)OCC(=O)NCCCOc1cccc(CN2CCCCC2)c1` [SPE_K81855038], for which the activation at 10 µM was -10.7%.
As for `CCOCCn1c(C2CCN(CCc3ccc(C(C)(C)C(=O)O)cc3)CC2)nc2ccccc21` [SPE_K51937257], the activation at 10 µM was -5.44%.
For the compound `CC(O)c1cc(C(=O)N[C@@H](C)Cn2ccc(-c3ccc(C#N)c(Cl)c3)n2)n[nH]1` (some centres unmarked) [SPE_A01259528], the activation at 10 µM was -15.4%.
Take `NCCCCCCCCCCNS(=O)(=O)c1cccc2c(Cl)cccc12` [SPE_K03301001]: the activation at 10 µM was 2.75%.
With `c1ccc(CNCc2ccc(CN3CCCNCCNCCCNCC3)cc2)nc1` [SPE_K03019184], the activation at 10 µM was -0.191%.
Turning to `O=C(/C=C/c1cccnc1)NCCCCC1CCN(C(=O)c2ccccc2)CC1` [SPE_K58550667], the activation at 10 µM worked out at 2.51%.
Consider `CN(C)Cc1ccc(-c2nc3cccc4c3n2CCNC4=O)cc1` [SPE_K00615600], for which the activation at 10 µM amounted to 6.53%.
As for `COc1cc2ncnc(Nc3cccc(Cl)c3F)c2cc1OC(=O)N1CCN(C)C[C@H]1C` [SPE_K41626799], the activation at 10 µM was -12.8%.
As to `COc1ccc2[nH]c3nnc(C)c-3c(NCCOCCO)c2c1` [SPE_K02460719], the activation at 10 µM is -9.99%.
As to `CC(=O)Nc1ccc(OC[C@](C)(O)C(=O)Nc2ccc([N+](=O)[O-])c(C(F)(F)F)c2)cc1` [SPE_K82164249], the activation at 10 µM is -13.9%.
For `O=C(O)CCNc1cc(N2CCc3ccccc3CC2)nc(-c2ccccn2)n1` [SPE_K32847255], the activation at 10 µM was -5.77%.
As for `CCN1C(=O)NC(c2ccccc2)C1=O` (centres unmarked) [SPE_A30205217], the activation at 10 µM is -4.7%.
With `C[C@@H]1CN(Cc2ncccn2)C[C@H]1c1nc2c(cnn2C2CCOCC2)c(=O)[nH]1` [SPE_K50031829], the activation at 10 µM was -10.7%.
For `Nc1nc(NC2CC2)cc(-c2cccc(Cl)c2Cl)n1` [SPE_K01054709], the activation at 10 µM was -5.46%.
As for `COc1cc(-n2c(S)nc3ccccc3c2=O)c(Cl)cc1Cl` [SPE_K61128465], the activation at 10 µM is 22%.
As to `NCC1CC(=O)N(Cc2ccccc2)C1` (centres unmarked) [SPE_A51355958], the activation at 10 µM turned out to be 2%.
For the compound `COc1cc(NS(=O)(=O)c2ccc(N)cc2)ncn1` [SPE_K14116214], the activation at 10 µM is -1.27%.
Same read-out and setting: as for `CCC(=O)NO` [SPE_K11984358], the figure is -5.92%.
As to `CC(C)(C)C(=O)OCOC(=O)C1N2C(=O)CC2S(=O)(=O)C1(C)C` (centres unmarked) [SPE_A63431791], the activation at 10 µM was -1.74%.
On to `CS(=O)(=O)c1ccc(C(O)[C@H](CF)NC(=O)C(Cl)Cl)cc1` (some centres unmarked) [SPE_A30886737], for which the activation at 10 µM was determined as 3.66%.
On the same count and under the same terms, as for `Cc1c(C(=O)NCc2cccnc2)nn(-c2ccc(Cl)cc2Cl)c1-c1ccc(Cl)cc1` [SPE_K71315565], the figure is 4.2%.
Take `C[C@@H](N)[C@@H](O)c1ccccc1` [SPE_K27853494]: the activation at 10 µM is -4.21%.
In the case of `CN1C(=O)OC(C)(C)C1=O` [SPE_K16606819], the activation at 10 µM is -11.7%.
As for `Cc1cc(OCc2nnc(SC3CCCC3)n2-c2cccnc2)ccc1-c1ccc(S(C)(=O)=O)cc1` [SPE_K26253904], the activation at 10 µM is -0.282%.
`CC(=O)Nc1ccc(CC(=O)O)cc1` [SPE_K33483813]: the activation at 10 µM was 2.74%.
For `CS(=O)(=O)Nc1ccc([N+](=O)[O-])cc1Oc1ccccc1` [SPE_K76775527], the activation at 10 µM is -12.8%.
Consider `CC(C)C[C@H](NC(=O)CNC(=O)c1cc(Cl)ccc1Cl)B1OC(=O)C(CC(=O)O)(CC(=O)O)O1` [SPE_K15203492], for which the activation at 10 µM is -7.87%.
With `CN1c2ccccc2C(=O)N2CCc3c([nH]c4ccccc34)C21` (centres unmarked) [SPE_A68631409], the activation at 10 µM was -12.1%.
For the compound `NCc1cc(O)no1` [SPE_K60441002], the activation at 10 µM is -7.28%.
Take `O=C(Nc1ccc(N2CCC(C(=O)N3CCOCC3)CC2)cc1)c1cnc(Oc2ccccc2)nc1` [SPE_K57708067]: the activation at 10 µM was -4.61%.
As to `COc1cc(O)c(C(=O)c2ccccc2)cc1S(=O)(=O)O` [SPE_K38602774], the activation at 10 µM was -11.2%.
On the same count and under the same terms, with `Cc1ccsc1/C=C/C1=NCCCN1C` [SPE_K71454870] the figure was -13.8%; with `CC(C)Oc1ccc(-c2cnc3c(-c4ccnc5ccccc45)cnn3c2)cc1` [SPE_K39381259], -4.31%.
Regarding `CC(C)Oc1ccc2c(=O)c3cc(C(=O)O)ccc3oc2c1` [SPE_K59339270], the activation at 10 µM is -2.83%.
For the compound `Cc1ccc(S(=O)(=O)/C=C/C#N)cc1` [SPE_K15025317], the activation at 10 µM was -2.64%.
`CN(CC[C@@H](Oc1ccc(-c2ccccc2)cc1)c1ccc(F)cc1)CC(=O)O` [SPE_K53979406]: the activation at 10 µM is -9.75%.
With `CCCN1CCCC[C@H]1C(=O)Nc1c(C)cccc1C` [SPE_K50938786], the activation at 10 µM stood at 0.0286%.
For `O=C1NC(=O)c2c1c1c3ccccc3[nH]c1c1[nH]c3ccccc3c21` [SPE_K72726508], the activation at 10 µM worked out at 12.7%.
For the compound `NS(=O)(=O)c1cc(C(=O)O)cc(N2CCCC2)c1Oc1ccccc1` [SPE_K87990216], the activation at 10 µM was found to be 0.629%.
On to `CCCCC1C(=O)N(c2ccccc2)N(c2ccc(O)cc2)C1=O` (centres unmarked) [SPE_A33749298], for which the activation at 10 µM stood at 2.66%.
In the case of `COc1c(C)cnc(Cn2cnc3c(Cl)nc(N)nc32)c1C` [SPE_K51967704], the activation at 10 µM was -7.08%.
On the same count and under the same terms, as for `Fc1ccc(C(OCCN2CCN(CCCc3ccccc3)CC2)c2ccc(F)cc2)cc1` [SPE_K32501161], the figure is -3.21%; as for `CC(=O)Nc1nc2c(Oc3cc(-c4ccc(C(F)(F)F)cc4)ncn3)cccc2s1` [SPE_K34185671], -12.4%; as for `Nc1ncnc2c1ncn2[C@@H]1O[C@H](CO)C[C@H]1O` [SPE_K65428967], -10.4%.
For the compound `CC1(C)O[C@@H]2CC3C4C[C@H](F)C5=CC(=O)C=CC5(C)C4C(O)CC3(C)[C@]2(C(=O)CO)O1` (some centres unmarked) [SPE_A65449987], the activation at 10 µM was determined as 6.74%.
For `CC#CC(=O)N1CCC[C@H]1c1nc(-c2ccc(C(=O)Nc3ccccn3)cc2)c2c(N)nccn12` [SPE_K64034691], the activation at 10 µM was -12.3%.
Regarding `Cc1csc(-c2nnc(Nc3ccc(Oc4ncccc4-c4ccnc(N)n4)cc3)c3ccccc23)c1` [SPE_K21728777], the activation at 10 µM was -11.5%.
Regarding `COc1ccc(NS(=O)(=O)c2ccc(I)cc2)cc1N1CCN(C)CC1` [SPE_K80639402], the activation at 10 µM came out at 17.6%.
Turning to `C[C@@H]1CN(CC(=O)Nc2ccc3c(c2)Cc2cccc(-c4cc(=O)cc(N5CCOCC5)o4)c2S3)C[C@H](C)O1` [SPE_K36016295], the activation at 10 µM is 15.1%.
In the case of `NC(C(=O)O)c1nnn[nH]1` (centres unmarked) [SPE_A14757586], the activation at 10 µM was -5.28%.
Turning to `CCCCCCCCCCCCCCCCCCO` [SPE_K20501889], the activation at 10 µM was -5.89%.
Regarding `CC(COc1ccccc1Cc1ccccc1)N1CCCCC1` (centres unmarked) [benproperine, reference compound], the PLD propensity entry is reported as “high PLD propensity”.
For `CCC/C=C1\OC(=O)C2=C1CCC=C2` [SPE_K48875051], the activation at 10 µM was -12.3%.
As for `Cc1c(CN2CCN(C(=O)[C@H](C)O)CC2)sc2c(N3CCOCC3)nc(-c3cnc(N)nc3)nc12` [SPE_K23228615], the activation at 10 µM was -5.95%.
